Earlier results in US6479458B1, “Targeting the reverse mode of the Na+/Ca2+ exchanger for the treatment of optic neuropathy associated with glaucoma and ischemic optic neuropathy” (Allergan, Inc., priority 2001, dated 2002).

How the values were obtained:
[1] = system: Na+/Ca2+ exchanger; conditions: variety of cell types including neurons
[2] = system: sodium-calcium exchange

| Compound | block of the reverse mode of the Na+/Ca2+ exchanger [1] | inhibition of sodium-calcium exchange [2] |
| --- | --- | --- |
| CS(=O)(=O)O.N=C(N)SCCc1ccc(OCc2ccc([N+](=O)[O-])cc2)cc1 [KB-R743] | preferentially block the reverse mode | – |
| cyclosporin A | – | specific activity in the inhibition of sodium-calcium exchange |
